In test [1] the test system is HeLa. Description: Cytotoxicity against human HeLa cells assessed as growth inhibition after 48 hrs by MTT assay. The format is functional, cell-based. Further details: unit not given here. (Formazan colour is commonly taken as a measure of viable cells.)
For another test, the system named is A549. Description: Cytotoxicity against human A549 cells assessed as growth inhibition after 48 hrs by MTT assay. The format is functional, cell-based.
The subject of test [2] is HeLa. Description: Cytotoxicity against human HeLa cells assessed as inhibition of colony formation at 0.1 to 1 umol after 5 days by crystal violet staining assay. The format is functional, cell-based.
A further test relates to MCF7. Description: Cytotoxicity against human MCF7 cells assessed as growth inhibition after 48 hrs by MTT assay. It counts as functional, cell-based.
The test system of test [3] is HeLa. Description: Cell cycle arrest in human HeLa cells assessed as accumulation at sub-G1 phase at 1 umol after 24 hrs (reference value: 7.8%). It counts as functional.
The subject of test [4] is HeLa. Description: Cell cycle arrest in human HeLa cells assessed as accumulation at sub-G1 phase at 0.3 umol after 24 hrs (reference value: 7.8%). It counts as functional.
Test [5] deals with HeLa. Description: Induction of apoptosis in human HeLa cells assessed as downregulation of survivin protein expression after 24 hrs by Western blot analysis. It counts as functional, cell-based.
Test [6] relates to HeLa. Description: Induction of apoptosis in human HeLa cells assessed as upregulation of par-4 protein expression after 24 hrs by Western blot analysis. The format is functional, cell-based. On the technique in general: Immunoblotting shows a protein as a band on a membrane.
Test [7] deals with HeLa. Description: Induction of apoptosis in human HeLa cells assessed as downregulation of GRP78 protein expression after 24 hrs by Western blot analysis. The format is functional, cell-based.
Test [8] deals with HeLa. Description: Induction of apoptosis in human HeLa cells assessed as downregulation of Bcl-2 protein expression after 24 hrs by Western blot analysis. The format is functional, cell-based.
Test [9] has as its system HeLa. Description: Cell cycle arrest in human HeLa cells assessed as accumulation at sub-G1 phase at 0.1 umol after 24 hrs (reference value: 7.8%). The format is functional.
Test [10] concerns HeLa. Description: Antimigratory activity against human HeLa cells in low serum containing medium at 0.3 to 1 umol after 24 hrs by wound healing assay. The format is functional, cell-based.
The subject of test [11] is HeLa. Description: Antimigratory activity against human HeLa cells in low serum containing medium at 25 nmol after 24 hrs by wound healing assay. The format is functional, cell-based.

Among the data in ChEMBL document CHEMBL3390841, “Design and synthesis of novel N,N-glycoside derivatives of 3,3-diindolylmethanes as potential antiproliferative agents” (Medchemcomm, 2012) are IC50, inhibition and Activity values, retold here.

Activity calls are given as the source filed them. The rule behind the calls is not given here.

For the compound `O=[N+]([O-])c1ccc(C(c2c[nH]c3ccc(Br)cc23)c2c[nH]c3ccc(Br)cc23)cc1`, the IC50 is 1.5 in the test with HeLa [1], 5.5 µM with A549 and 3.1 µM with MCF7. Further, the inhibition entry in the test on HeLa [2] is “Active”.
As for `COc1ccc(C(c2c[nH]c3ccc(Br)cc23)c2c[nH]c3ccc(Br)cc23)c(OC)c1`, the IC50 in the test on HeLa [1] worked out at 63.2; with A549, 100 µM; in the test on MCF7 it was 77.5 µM.
Take `CCCCCCCC(c1cn([C@@H]2O[C@H](CO)[C@@H](O)[C@H](O)[C@H]2O)c2ccc(Br)cc12)c1cn([C@@H]2O[C@H](CO)[C@@H](O)[C@H](O)[C@H]2O)c2ccc(Br)cc12`: the Activity in the test on HeLa [3] is 22.4%; in the test on HeLa [4] it was 19.3%; with HeLa [5], “Dose-dependent effect”; in the test with HeLa [6], “Dose-dependent effect”; in the test on HeLa [7], “Dose-dependent effect”; in the test on HeLa [8], “Dose-dependent effect”. In addition, the Activity with HeLa [9] is on record as 27.8%. The IC50 is 0.3 in the test on HeLa [1], 1.3 µM in the test on A549 and 0.9 µM with MCF7. Moreover, the inhibition result in the test on HeLa [2] was “Active”. The outcome in the test on HeLa [10] was Active.
Turning to `CCCCCCCC(c1cn([C@@H]2O[C@H](COC(C)=O)[C@@H](OC(C)=O)[C@H](OC(C)=O)[C@H]2OC(C)=O)c2ccc(Br)cc12)c1cn([C@@H]2O[C@H](COC(C)=O)[C@@H](OC(C)=O)[C@H](OC(C)=O)[C@H]2OC(C)=O)c2ccc(Br)cc12`, the IC50 with HeLa [1] was 10; in the test with A549, 17 µM; in the test on MCF7, more than 100 µM.
For `CCCCCCCC(c1c[nH]c2ccc([N+](=O)[O-])cc12)c1c[nH]c2ccc([N+](=O)[O-])cc12`, the values for the IC50 in the test on HeLa [1], in the test on A549 and in the test on MCF7 were 35, 12.5 µM and 5.8 µM, respectively.
The matching figures for `O=[N+]([O-])c1ccc2[nH]cc(C(c3ccc(Cl)cc3)c3c[nH]c4ccc([N+](=O)[O-])cc34)c2c1`: more than 100, more than 100 µM and more than 100 µM.
The like results for `COc1ccc(C(c2c[nH]c3ccc(Br)cc23)c2c[nH]c3ccc(Br)cc23)cc1OC` were, in that order, 6.1, 12 µM and 7.8 µM.
The like results for `Brc1ccc2[nH]cc(C(c3ccccc3)c3c[nH]c4ccc(Br)cc34)c2c1` were, in that order, 0.9, 7.5 µM and 5.5 µM.
On to `CCCCCCCC(c1c[nH]c2ccc(Br)cc12)c1c[nH]c2ccc(Br)cc12`, for which the figures for the IC50 with HeLa [1], in the test with A549 and in the test on MCF7 were 1.3, 3.5 µM and 5.5 µM, respectively. Moreover, the inhibition result in the test on HeLa [2] was “Active”.
As for `O=[N+]([O-])c1ccc(C(c2c[nH]c3ccc([N+](=O)[O-])cc23)c2c[nH]c3ccc([N+](=O)[O-])cc23)cc1`, the IC50 with HeLa [1] was more than 100; in the test on A549, more than 100 µM; with MCF7, 22.5 µM.
With `Brc1ccc2[nH]cc(C(c3c[nH]c4ccc(Br)cc34)C3CCCCC3)c2c1`, the IC50 in the test with HeLa [1] came out at 3.2; in the test on A549, 5.5 µM; in the test on MCF7, 4.1 µM.
The like results for `O=[N+]([O-])c1ccc(C(c2cn([C@@H]3O[C@H](CO)[C@@H](O)[C@H](O)[C@H]3O)c3ccc(Br)cc23)c2cn([C@@H]3O[C@H](CO)[C@@H](O)[C@H](O)[C@H]3O)c3ccc(Br)cc23)cc1` were, in that order, 30, 2.4 µM and 66.7 µM.
The like results for `CC(=O)OC[C@H]1O[C@@H](n2cc(C(c3ccc(Br)cc3)c3cn([C@@H]4O[C@H](COC(C)=O)[C@@H](OC(C)=O)[C@H](OC(C)=O)[C@H]4OC(C)=O)c4ccc(Br)cc34)c3cc(Br)ccc32)[C@H](OC(C)=O)[C@@H](OC(C)=O)[C@@H]1OC(C)=O` were, in that order, 70, 24 µM and more than 100 µM.
`CCCC(c1c[nH]c2ccc(Br)cc12)c1c[nH]c2ccc(Br)cc12`: the IC50 was found to be 3.9 in the test on HeLa [1], 6.5 µM with A549 and 3.6 µM with MCF7.
With `Clc1ccc(C(c2c[nH]c3ccc(Br)cc23)c2c[nH]c3ccc(Br)cc23)cc1`, the IC50 in the test on HeLa [1] was found to be 4.8; in the test with A549, 8.5 µM; in the test on MCF7 it was 3.5 µM. In addition, the inhibition entry in the test with HeLa [2] is “Active”.
`O=[N+]([O-])c1ccc2[nH]cc(C(c3ccc(Br)cc3)c3c[nH]c4ccc([N+](=O)[O-])cc34)c2c1`: the IC50 in the test on HeLa [1] is more than 100; in the test on A549, more than 100 µM; in the test on MCF7 it was more than 100 µM.
With `Brc1ccc2[nH]cc(C(c3ccc4ccccc4c3)c3c[nH]c4ccc(Br)cc34)c2c1`, the IC50 with HeLa [1] worked out at 4.3; with A549, 8.5 µM; with MCF7, 7.1 µM.
In the case of `CN[C@@H]1C[C@H]2O[C@@](C)([C@@H]1OC)n1c3ccccc3c3c4c(c5c6ccccc6n2c5c31)C(=O)NC4` [STAUROSPORINE], the result with HeLa [11] was Active. For the same compound, the IC50 in the test with MCF7 turned out to be 0.013 µM.
In the case of `COc1ccc(C(c2c[nH]c3ccc(Br)cc23)c2c[nH]c3ccc(Br)cc23)cc1`, the IC50 in the test with HeLa [1] is 5.5; in the test on A549 it was 10 µM; in the test on MCF7, 2.3 µM.
`CC[C@@]1(O)C(=O)OCc2c1cc1n(c2=O)Cc2cc3ccccc3nc2-1` [CAMPTOTHECIN]: the Activity in the test with HeLa [9] came out at 33.1%.
Consider `COc1cccc(C(c2c[nH]c3ccc(Br)cc23)c2c[nH]c3ccc(Br)cc23)c1OC`, for which the values for the IC50 with HeLa [1], in the test with A549 and in the test with MCF7 were 64.5, 100 µM and 89 µM, respectively.
Turning to `Oc1ccc(C(c2c[nH]c3ccc(Br)cc23)c2c[nH]c3ccc(Br)cc23)cc1`, in the test with MCF7, the IC50 was found to be 3.5 µM.
`c1ccc(C(c2c[nH]c3ccccc23)c2c[nH]c3ccccc23)cc1`: the results for the IC50 in the test with HeLa [1], in the test with A549 and in the test with MCF7 were 21.8, 40 µM and 22.2 µM, respectively.
The like results for `OC[C@H]1O[C@@H](n2cc(C(c3ccc(Cl)cc3)c3cn([C@@H]4O[C@H](CO)[C@@H](O)[C@H](O)[C@H]4O)c4ccc(Br)cc34)c3cc(Br)ccc32)[C@H](O)[C@@H](O)[C@@H]1O` were, in that order, 32, 2.7 µM and 53.2 µM.
The like results for `N#Cc1ccc2[nH]cc(C(c3ccc(Br)cc3)c3c[nH]c4ccc(C#N)cc34)c2c1` were, in that order, more than 100, more than 100 µM and 27.1 µM.
In the case of `CN(C)c1ccc(C(c2c[nH]c3ccc(Br)cc23)c2c[nH]c3ccc(Br)cc23)cc1`, the results for the IC50 with HeLa [1], with A549 and in the test on MCF7 were 12.8, 25 µM and 24.9 µM, respectively.
The like results for `N#Cc1ccc2[nH]cc(C(c3ccc(Cl)cc3)c3c[nH]c4ccc(C#N)cc34)c2c1` were, in that order, more than 100, more than 100 µM and 23.6 µM.
`Brc1ccc(C(c2c[nH]c3ccc(Br)cc23)c2c[nH]c3ccc(Br)cc23)cc1`: the IC50 in the test with HeLa [1] was 1.5; in the test with A549 it was 5.6 µM; in the test with MCF7, 3.2 µM. The inhibition result in the test with HeLa [2] is “Active”.
Take `CCCCCCCC(c1c[nH]c2ccc(C#N)cc12)c1c[nH]c2ccc(C#N)cc12`: the IC50 in the test on HeLa [1] was determined as 7; in the test on A549 it was 26 µM; in the test with MCF7, 2.5 µM.
The matching figures for `COc1ccc(OC)c(C(c2c[nH]c3ccc(Br)cc23)c2c[nH]c3ccc(Br)cc23)c1`: 5.1, 10 µM and 2.8 µM.
With `OC[C@H]1O[C@@H](n2cc(C(c3ccc(Br)cc3)c3cn([C@@H]4O[C@H](CO)[C@@H](O)[C@H](O)[C@H]4O)c4ccc(Br)cc34)c3cc(Br)ccc32)[C@H](O)[C@@H](O)[C@@H]1O`, the values for the IC50 in the test on HeLa [1], in the test with A549 and in the test on MCF7 were 27, 2.5 µM and 51.1 µM, respectively.
On to `CC(=O)OC[C@H]1O[C@@H](n2cc(C(c3ccc([N+](=O)[O-])cc3)c3cn([C@@H]4O[C@H](COC(C)=O)[C@@H](OC(C)=O)[C@H](OC(C)=O)[C@H]4OC(C)=O)c4ccc(Br)cc34)c3cc(Br)ccc32)[C@H](OC(C)=O)[C@@H](OC(C)=O)[C@@H]1OC(C)=O`, for which the IC50 in the test with HeLa [1] was 3.5; with A549, 8 µM; in the test with MCF7 it was more than 100 µM.
The like results for `Oc1cccc(C(c2c[nH]c3ccc(Br)cc23)c2c[nH]c3ccc(Br)cc23)c1` were, in that order, 3.9, 8 µM and 2.8 µM.
Regarding `CC(=O)OC[C@H]1O[C@@H](n2cc(C(c3ccc(Cl)cc3)c3cn([C@@H]4O[C@H](COC(C)=O)[C@@H](OC(C)=O)[C@H](OC(C)=O)[C@H]4OC(C)=O)c4ccc(Br)cc34)c3cc(Br)ccc32)[C@H](OC(C)=O)[C@@H](OC(C)=O)[C@@H]1OC(C)=O`, the IC50 was 70 in the test on HeLa [1], 24 µM with A549 and more than 100 µM in the test on MCF7.
The like results for `CC(c1ccccc1)(c1c[nH]c2ccccc12)c1c[nH]c2ccccc12` were, in that order, 4.2, 8.5 µM and 4 µM.
The matching figures for `N#Cc1ccc2[nH]cc(C(c3ccc([N+](=O)[O-])cc3)c3c[nH]c4ccc(C#N)cc34)c2c1`: more than 100, more than 100 µM and 23.6 µM.
